According to patent US6548235B2, “Stabilized solution of an alkali metal or alkaline earth metal salt of p-phenylenediamine color developer and method of making same” (Eastman Chemical Company, priority 2000, dated 2003):
Each block holds one molecule with its values, some of them ahead of it.

Key:
Type in all cases: physicochemical
[1] = Product solution of CD-3 free base sodium salt after solvent exchange, observed at ambient temperature; details: Example 53, nominally 23% in water after distilling 2-propanol, contains DEHA
Method: A 425 gram autoclave solution containing 23.2% CD-3 free base, 2.5% DEHA in 268 g of 2-propanol, and 47 g of water was added to a two-liter flask equipped with an overhead agitator, temperature probe, addition funnel, condenser with take-off provision, and nitrogen blanketing. Water (275 g) and 30 g of 50% aqueous sodium hydroxide were added to the flask. The mixture was distilled at a vapor temperature of approximately 85° C.

[2] = Saturation solubility of CD-3 free base in solvent/water/sodium hydroxide systems; details: 3 weight percent DEHA, ambient temperature, HPLC
Method: Because CD-3 free base can be converted to its metal salt by treatment with a sufficiently strong base such as an alkali metal or alkaline earth metal hydroxide, carbonate, alkoxide or hydride, the solubility of CD-3 free base in solvent systems in combination with water and base was measured to determine if enhanced solubility could be obtained. The saturation concentration in weight percent again was determined by the techniques of both HPLC and NMR. Selected solvents were combined with water and an alkali metal hydroxide (sodium hydroxide), with each sample containing a small quantity (3 weight percent) of a representative preservative (DEHA). Excess, dry CD-3 free base was added to each combination solvent system and saturation was achieved by mixing for several hours at ambient temperature.

[3] = Saturation solubility of CD-3 free base in solvents and solvent/water mixtures; details: 3% DEHA, ambient temperature
Method: The solubility of the free base form of color developers CD-3 in a number of potential solvents was determined. Representative solvents were selected from each of the different classes of solvents: alcohols, glycols and glycol ethers. A small quantity of a representative preservative, 3% of N,N-diethylhydroxylamine (DEHA), was added. Excess dry color developer free base (CD-3) was added to each solvent and saturation was achieved by mixing for several hours at room temperature. […] In Table I, Solvent:Water refers to the weight:weight, solvent:water ratio when water was included, CD Free Base Concentration refers to the weight percent saturation concentration of CD-3, and PEG 200 and PEG 300 refers to poly(ethylene glycol) having an average molecular weight of 200 or 300.

Solution behaviour of final product solution [1]: remained in solution
Compound: CCN(CC[N-]S(C)(=O)=O)c1ccc(N)c(C)c1.[Na+] [CD-3 free base sodium salt]

CD Free Base Conc. (saturation concentration) ([2]; Example 19, 2-Isopropoxyethanol/Water/NaOH 63:34:3 w): 22.9 weight percent | CD Free Base Conc. (saturation concentration) ([2]; Example 20, 2-Methyl-1,3-Propanediol/Water/NaOH 63:34:3 w): 19.0 weight percent | CD Free Base Conc. (saturation concentration) ([2]; Example 21, 3-Methoxy-1-Butanol/Water/NaOH 63:34:3 w): 21.3 weight percent | CD Free Base Conc. (saturation concentration) ([2]; Example 22, PEG-200/Water/NaOH 63:34:3 w): 19.5 weight percent | CD Free Base Conc. (saturation concentration) ([2]; Example 23, PEG-300/Water/NaOH 63:34:3 w): 19.2 weight percent | CD Free Base Conc. (saturation concentration) ([2]; Example 24, Diethylene Glycol/Water/NaOH 63:34:3 w): 15.1 weight percent | CD Free Base Conc. (saturation concentration) ([2]; Example 26, 2-Methyl-1,3-Propanediol/Water/NaOH 61:33:6 w): 23.2 weight percent | CD Free Base Conc. (saturation concentration) ([2]; Example 27, 3-Methoxy-1-Butanol/Water/NaOH 61:33:6 w): 26.4 weight percent | CD Free Base Conc. (saturation concentration) ([2]; Example 28, PEG-200/Water/NaOH 61:33:6 w): 23.5 weight percent | CD Free Base Conc. (saturation concentration) ([2]; Example 29, PEG-300/Water/NaOH 61:33:6 w): 20.8 weight percent | CD Free Base Conc. (saturation concentration) ([2]; Example 30, Diethylene Glycol/Water/NaOH 61:33:6 w): 21.9 weight percent | CD Free Base Conc. (saturation concentration) ([2]; Example 31, Water/NaOH 93.5:6.5 w): 25.1 weight percent | CD Free Base Conc. (saturation concentration) ([2]; Example printed 24 (second), 2-Isopropoxyethanol/Water/NaOH 61:33:6 w): 21.9 weight percent | CD Free Base Conc. (saturation concentration) ([3]; Example 1, 2-Isopropoxyethanol): 8.6 weight percent | CD Free Base Conc. (saturation concentration) ([3]; Example 2, 2-Methyl-1,3-Propanediol): 3.3 weight percent | CD Free Base Conc. (saturation concentration) ([3]; Example 3, 3-Methoxy-1-Butanol): 9.3 weight percent | CD Free Base Conc. (saturation concentration) ([3]; Example 4, PEG-200): 16.9 weight percent | CD Free Base Conc. (saturation concentration) ([3]; Example 5, PEG-300): 16.7 weight percent | CD Free Base Conc. (saturation concentration) ([3]; Example 6, Diethylene Glycol): 15.2 weight percent | CD Free Base Conc. (saturation concentration) ([3]; Example 7, Methanol): 23.6 weight percent | CD Free Base Conc. (saturation concentration) ([3]; Example 8, Methanol/Water 90:10 w:w): 18.9 weight percent | CD Free Base Conc. (saturation concentration) ([3]; Example 9, Methanol/Water 50:50 w:w): 6.8 weight percent | CD Free Base Conc. (saturation concentration) ([3]; Example 10, Methanol/Water 10:90 w:w): 0.7 weight percent | CD Free Base Conc. (saturation concentration) ([3]; Example 11, Ethanol): 5.4 weight percent | CD Free Base Conc. (saturation concentration) ([3]; Example 12, Ethanol/Water 90:10 w:w): 9.7 weight percent | CD Free Base Conc. (saturation concentration) ([3]; Example 13, Ethanol/Water 50:50 w:w): 9.0 weight percent | CD Free Base Conc. (saturation concentration) ([3]; Example 14, Ethanol/Water 10:90 w:w): 0.6 weight percent | CD Free Base Conc. (saturation concentration) ([3]; Example 15, 2-Propanol): 1.8 weight percent | CD Free Base Conc. (saturation concentration) ([3]; Example 16, 2-Propanol/Water 90:10 w:w): 7.8 weight percent | CD Free Base Conc. (saturation concentration) ([3]; Example 17, 2-Propanol/Water 50:50 w:w): 9.2 weight percent | CD Free Base Conc. (saturation concentration) ([3]; Example 18, 2-Propanol/Water 10:90 w:w): 0.8 weight percent
Compound: CCN(CCNS(C)(=O)=O)c1ccc(N)c(C)c1 [CD-3 free base, 4-amino-3-methyl-N-ethyl-N-(2-methanesulfonamidoethyl)aniline]
